Results as given in patent US6303568A, “Therapeutic antimicrobial polypeptides, their use and methods for preparation” (Helix Biomedix, Inc., priority 1996, dated 2001).
Where two headings read alike, the source gives them in different places. Ends that are not written are not given here.

What was measured:
[1] = tested on: Brucella abortus; format: in vivo; conditions: 0.176 milligrams/day intramuscularly for 4 days from 12th day post infection; sacrificed 16th day post infection
[2] = tested on: Brucella abortus; format: cell-based
[3] = tested on: E. coli E/2/64; assay: In vitro exposure and plate count, E. coli (Example 3); format: cell-based
Experimental: A known number of viable microorganisms were exposed to a known concentration of the antimicrobial agent for a given time period. Following exposure, the undiluted or diluted microorganisms were plated on solid growth media, e.g., agar plates. The plates were incubated and numbers of organisms determined by making plate counts. Comparisons are then made with the non-treated bacteria for evidence of inhibition, mortality, or both. The following Examples give detailed experimental procedures and results for several microorganisms and antimicrobial agents. […] The E. coli is collected in late log phase growth at which the majority of cells are in growth phase at 18-24 hours. […] The mixtures were incubated at room temperature for 1 hour, and then at 37° C. for 30 minutes. The mixtures were diluted to 10^-1 or 10^-3 with serial dilutions at 7 drops per dilution (10 microliters per drop), plated on agar growth media, which is a tryptose agar. The plates were incubated for 3 days at 37° C. Plate counts were then made and the results given below.

[4] = BALB/C mice
Experimental: The safety of antimicrobial agents according to the present invention was tested according to standard procedures in animal studies.
Six BALB/C mice, 4 to 5 weeks of age, maintained on commercial rodent ration fed ad libidum and in general good health were each inoculated with 1.76 milligrams/day of cecropin C-37 in balanced salt solution intramuscularly for 4 consecutive days. No other change was made in diet or conditions. […] At the end of the fourth day, three of the […] were humanely destroyed and examined. After 30 days, 3 of the 6 were given an additional 1.76 milligrams each.
The remaining mice were all killed 7 days after the last inoculation.
Following the procedure above in Part A, three BALB/C mice were given 110 milligrams/kilogram of body weight of cecropin C-37 injected intramuscularly in balanced salt solution for 6 days. White cell counts and differentials were performed on a daily basis. Ten days after the last inoculation, the mice were again injected intramuscularly with 110 milligrams/kilogram of body weight with Cecropin C-37. […] All three mice were killed 7 days after the final inoculation and tissues were examined.

## CN(C)[C@@H]1C(O)=C(C(N)=O)C(=O)[C@@]2(O)C(O)=C3C(=O)c4c(O)cccc4[C@@](C)(O)[C@H]3C[C@@H]12 [Tetracycline, tetracycline]
[1]
  Concentration of Brucella abortus in BALB/c Mouse Spleen Tissue After 4 Days Treatment: 4.4 × 10^3 per gram of spleen

## KWKVFKKIEKMGRNIRNGIVKAGPAIAVLGEAKAL-NH2 [Cecropin B]
[2]
  Effect on Brucella abortus (growth): no growth
[3]; 5 × 10^-6 molar
  Effect on E. coli (growth): no growth
[3]; lower concentrations of 1 nanomolar and 1 micromolar
  Effect on E. coli (growth): positive E. coli growth

## MPKWKVFKKIEKVGRNIRNGIVKAGPAIAVLGEAKAL-NH2 [Cecropin C-37]
[4]; 1.76 milligrams/day intramuscularly
  IgG antibody to the antimicrobial agent: None of these mice produced detectable levels
[4]; 1.76 milligrams/day intramuscularly for 4 consecutive days, observed twice daily
  adverse reactions: no adverse reactions
[4]; 1.76 milligrams/day intramuscularly, killed 7 days after last inoculation
  gross pathological changes in organs and at injection sites: no gross pathological changes
[4]; 110 milligrams/kilogram intramuscularly
  Cecropin C-37 antibodies: No Cecropin C-37 antibodies were detected
[4]; 110 milligrams/kilogram intramuscularly for 6 days, again ten days after
  adverse effects: no adverse effects
[4]; 110 milligrams/kilogram intramuscularly, killed 7 days after final inoculation
  tissue examination: enlarged spleens but were otherwise unremarkable
[4]; additional 1.76 milligrams each after 30 days
  adverse reactions: No adverse reactions

## lysozyme: lysozyme, tested by itself and combined with cecropins
[3]; lysozyme itself at 10 micrograms, 1 milligram, and 10 milligrams per milliliter, 10^-1 and 10^-3 dilutions
  Effect on E. coli (growth): positive growth
